Reference: ChEMBL document CHEMBL1201862, “PubChem BioAssay data set” (2004)
The source made the active and inactive calls.

Experiments:
Insulin-degrading enzyme [1] = biological target: T1, Insulin-degrading enzyme (Homo sapiens, UniProt P14735); assay: activators of recombinant IDE enzyme, dose response, counter-screen for IDE activator project, biochemical, fluorescence polarization (AID 588681)
T1 sequence (P14735 whole entry): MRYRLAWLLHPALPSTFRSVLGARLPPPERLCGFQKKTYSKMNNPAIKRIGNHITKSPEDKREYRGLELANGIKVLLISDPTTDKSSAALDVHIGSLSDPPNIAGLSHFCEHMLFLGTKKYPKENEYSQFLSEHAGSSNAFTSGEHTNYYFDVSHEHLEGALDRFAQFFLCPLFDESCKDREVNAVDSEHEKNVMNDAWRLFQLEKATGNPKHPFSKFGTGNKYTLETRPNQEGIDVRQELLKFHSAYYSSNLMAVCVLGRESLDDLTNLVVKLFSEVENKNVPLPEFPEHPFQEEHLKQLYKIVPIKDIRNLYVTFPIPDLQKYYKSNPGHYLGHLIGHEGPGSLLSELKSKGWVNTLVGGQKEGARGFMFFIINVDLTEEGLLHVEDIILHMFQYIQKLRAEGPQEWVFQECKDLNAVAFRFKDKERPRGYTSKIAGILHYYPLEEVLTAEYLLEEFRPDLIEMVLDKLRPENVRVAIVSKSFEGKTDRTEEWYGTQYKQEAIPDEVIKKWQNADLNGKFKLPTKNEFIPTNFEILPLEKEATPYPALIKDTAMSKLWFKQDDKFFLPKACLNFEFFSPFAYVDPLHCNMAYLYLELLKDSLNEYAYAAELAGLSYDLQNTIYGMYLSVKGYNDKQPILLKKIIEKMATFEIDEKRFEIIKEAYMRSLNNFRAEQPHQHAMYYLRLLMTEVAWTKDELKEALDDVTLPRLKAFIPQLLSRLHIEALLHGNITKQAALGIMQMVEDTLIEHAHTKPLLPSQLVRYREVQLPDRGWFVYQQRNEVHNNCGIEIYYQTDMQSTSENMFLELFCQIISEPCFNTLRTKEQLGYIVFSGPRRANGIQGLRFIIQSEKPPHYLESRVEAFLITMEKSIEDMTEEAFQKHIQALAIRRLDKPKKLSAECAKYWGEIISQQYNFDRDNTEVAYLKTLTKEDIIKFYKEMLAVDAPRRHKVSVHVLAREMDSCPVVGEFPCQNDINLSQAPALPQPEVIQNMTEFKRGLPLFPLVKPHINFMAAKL

Insulin-degrading enzyme [2] = biological target: T1, Insulin-degrading enzyme; assay: activators of endogenous IDE in HEK cells, dose response, cell-based, fluorescence polarization (AID 588439); type: functional
HEK293 [3] = assay: HEK cell cytotoxicity by LDH release, dose response, cytotoxicity control for IDE activator project, fluorescence, HEK cells (AID 588440); type: functional, cell-based; conditions: Homo sapiens;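 further: cytotoxicity by LDH release measuring loss of membrane integrity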
HEK293 [4] = assay: optical interference in Abeta FP readout, dose response, artefact control for IDE activator project, biochemical, fluorescence polarization (AID 588442); type: functional, cell-based; conditions: Homo sapiens
[5] = biological target: T2, High affinity choline transporter 1 (Homo sapiens, UniProt Q9GZV3); assay: CHT inhibitors, dose response, cell-based, 5-point CRC, membrane potential dye (AID 504840); type: functional
T2 sequence (Q9GZV3 whole entry): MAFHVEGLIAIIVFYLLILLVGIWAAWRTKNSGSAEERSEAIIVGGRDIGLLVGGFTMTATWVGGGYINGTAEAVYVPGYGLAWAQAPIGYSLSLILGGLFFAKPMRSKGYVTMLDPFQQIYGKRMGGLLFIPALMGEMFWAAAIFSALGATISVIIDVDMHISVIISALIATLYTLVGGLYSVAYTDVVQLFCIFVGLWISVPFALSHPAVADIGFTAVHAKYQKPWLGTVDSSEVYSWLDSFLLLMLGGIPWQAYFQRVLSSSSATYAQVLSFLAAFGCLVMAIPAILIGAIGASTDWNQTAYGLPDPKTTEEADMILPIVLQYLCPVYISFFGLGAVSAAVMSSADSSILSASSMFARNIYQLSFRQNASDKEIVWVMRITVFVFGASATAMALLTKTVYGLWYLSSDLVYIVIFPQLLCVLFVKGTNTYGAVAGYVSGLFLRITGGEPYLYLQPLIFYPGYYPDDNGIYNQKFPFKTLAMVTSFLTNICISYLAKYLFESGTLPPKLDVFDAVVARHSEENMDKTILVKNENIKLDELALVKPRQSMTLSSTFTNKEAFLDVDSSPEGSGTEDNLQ

[6] = biological target: T2, High affinity choline transporter 1; assay: CHT inhibitors, dose response, cell-based, 10-point CRC, membrane potential dye (AID 588401); type: functional;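 further: membrane potential dye fluorescence of choline-evoked depolarization via CHT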
[7] = biological target: Protein disulfide-isomerase (Homo sapiens, UniProt P07237); assay: PDI inhibitors, insulin aggregation turbidity, dose response, biochemical, absorbance, cherry-picked samples (AID 602350); type: functional
Protein disulfide-isomerase, sequence (P07237 whole entry): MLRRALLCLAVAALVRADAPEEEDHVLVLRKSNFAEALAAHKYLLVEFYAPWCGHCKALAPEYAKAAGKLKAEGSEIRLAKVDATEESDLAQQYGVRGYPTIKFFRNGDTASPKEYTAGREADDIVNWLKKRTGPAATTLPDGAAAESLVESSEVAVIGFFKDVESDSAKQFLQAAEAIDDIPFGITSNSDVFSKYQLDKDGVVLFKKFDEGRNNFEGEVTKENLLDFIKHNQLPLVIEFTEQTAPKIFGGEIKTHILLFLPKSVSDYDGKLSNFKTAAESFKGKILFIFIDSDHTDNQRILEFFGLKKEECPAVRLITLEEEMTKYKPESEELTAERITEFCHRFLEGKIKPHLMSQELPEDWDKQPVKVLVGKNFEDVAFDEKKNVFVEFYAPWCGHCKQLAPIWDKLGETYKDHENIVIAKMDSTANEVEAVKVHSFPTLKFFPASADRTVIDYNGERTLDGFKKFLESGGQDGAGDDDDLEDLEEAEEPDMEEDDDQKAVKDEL

| IC50 [5] | IC50 [6] | AC50 [7] | Structure (SMILES) | EC50 (Insulin-degrading enzyme [1]) | EC50 (Insulin-degrading enzyme [2]) | IC50 (HEK293 [3]) | EC50 (HEK293 [4]) |
| --- | --- | --- | --- | --- | --- | --- | --- |
|  |  |  | O=C(CN1C(=O)COc2ccc(S(=O)(=O)N3CCCC3)cc21)NCc1ccccn1 | > 54.7 µM (inactive) | > 54.7 µM (inactive) | > 89.2 µM (inactive) | > 54.7 µM (inactive) |
|  |  |  | CC(C)(O)C#Cc1ccccc1C(=O)NC(CC(N)=O)C(=O)O (stereo unspecified) | > 54.7 µM (inactive) | > 54.7 µM (inactive) | > 89.2 µM (inactive) | > 55.9 µM (inactive) |
| 4.07 µM (active) | 4.28 µM (active) |  | CCCCN(CCCC)CCNC(=O)c1cn(CC)c2ccc(S(=O)(=O)N3CCc4ccccc4C3)cc2c1=O |  |  |  |  |
|  |  | 19.5 µM (active) | O=C(NC(Cc1ccc(O)cc1)C(=O)N=Nc1c(O)[nH]c2ccccc12)c1ccccc1 (stereo unspecified) |  |  |  |  |
